Converted amounts (≈) assume the structure as drawn. “Also recorded” adds a separate entry of the source. Where a name gives a salt, the structure may show the parent alone.
Tests used:
[1] = Solubility of bromhexine base in phosphate buffer / aqueous medium; assay type: physicochemical; settings: for solubility: aqueous buffer
Source text: If, for example, bromhexine hydrochloride is made into the form of a matrix-type delayed-release tablet (Example 11), bromhexine can only be released, in dissolved form, from this preparation as long as the tablet is in the acidic medium of the stomach. […] The intestinal juices momentarily buffer the acid salts to form a substantially insoluble bromhexine base.

[2] = cited from earlier work
[3] = Absorption of bromhexine from the intestinal tract (preliminary tests in vivo); settings: for absorption from the intestinal tract: micronized, introduced by preparation resistant to gastric juices
Source text: In view of the obvious advantages of producing a delayed-release form of bromhexine, there has been no shortage of attempts to produce such a preparation. […] In cases such as this, success is often achieved if the active substance is mixed with an emulsifier which then releases the active substance in solubilized form in the intestinal juices.

Row | Solubility in aqueous medium ([1]; acidic range) | solubility ([1]; pH 4.5, phosphate buffer) | solubility ([1]; pH 5.0, phosphate buffer) | solubility ([1]; pH 6.0, phosphate buffer) | solubility ([1]; pH 6.5, phosphate buffer) | solubility ([1]; pH 7.0, phosphate buffer) | Structure (SMILES) | Solubility in water ([1]; above a pH of 4 / from pH 4.0) | frequency of coughing, total number of coughing spasms and intensity of the cough ([2]; in vivo) | therapeutic effect in diseases of the respiratory tract ([2]; pathological change in secretion, single or double blind testing) | breathing ([2]; patients' finding) | absorption rate along the intestine ([3]; dissolved bromhexine in various intestinal sections, duodenum to colon) | absorption from the intestinal tract [3]
1 | soluble only in the acidic range | 650 µg/mL (≈ 1730 µM) | 150 µg/mL (≈ 399 µM) | 30 µg/mL (≈ 79.8 µM) | 10 µg/mL (≈ 26.6 µM) | 3 µg/mL (≈ 7.98 µM) | CN(Cc1cc(Br)cc(Br)c1N)C1CCCCC1 [bromhexine, N-cyclohexyl-N-methyl-(2-amino-3,5-dibromobenzyl)-amine] | virtually insoluble in water; also recorded: virtually insoluble from pH 4.0 | favorably affected | often been confirmed | breathing is eased | decreases sharply from the duodenum to the colon; also recorded: absorbed particularly quickly in the uppermost section of the intestines; also recorded: decreases significantly in the lower intestinal regions | 
2 |  |  |  |  |  |  | CN(Cc1cc(Br)cc(Br)c1N)C1CCCCC1 [micronized bromhexine hydrochloride] |  |  |  |  |  | did not result in any appreciable absorption
3 |  |  |  |  |  |  | CN(Cc1cc(Br)cc(Br)c1N)C1CCCCC1 [micronized bromhexine] |  |  |  |  |  | not absorbed
